Test results taken from patent publication US4599325A, “Substituted tyrosyl alanine dipeptide amides” (G. D. Searle & Co., priority 1985, dated 1986).
pIC50: −log10 of the molar value.

Assays:
opiate receptors = assay: Opiate binding assay (displacement of 3H-Naloxone); design: species or system rat; conditions: Table 1, 3H-Naloxone, rat brain membranes
Procedure: The test compounds were evaluated for their ability to displace the binding of ^3 H-Naloxone to opiate receptors isolate from rat brain. Male rats [COBS CD(SD)BR] obtained from Charles River Laboratories (Portage, MI) were sacrificed by cervical dislocation. A purified homogenate of receptor membranes was prepared from the brains according to the method described by Chang and Cuatrecasas. (K.-J. Chang and P. Cuatrecases. Multiple Opiate Receptors: Enkephalins And Morphine Bind To Receptors Of Different Specificity. J. Biol. Chem. 254, 2610-2618 (1979).) The brains were homogenized in 10 volumes of 0.32M sucrose and centrifuged twice at 6,000×g for 15 minutes. Following centrifugation of the supernatants at 40,000×g for 30 minutes, the pellets were allowed to swell, then centrifuged at 6,000 and 40,000×g. This process was repeated. The final pellet was resuspended in 2 volumes of 50 mM tris HCl (pH 7.4). The homogenate was assayed for protein content according to the method of Itzhaki and Gill. R. F. Itzhaki and D. M. Gill. A Micro-Biuret Method for Estimating Proteins. Anal. Biochem. 9, […] (1964).
The binding of the test compounds to the receptor membrane preparation was measured using a modification of the method of Pert and Snyder. C. B. Pert and S. H. Snyder. Properties of Opiate-Receptor Binding in Rat Brain. Proc. Natl. Acad. Sci. 70, 2243-2247 (1973). The receptor assay was run using 1 nM ^3 H-Naloxone and 2 ml of tissue homogenate (0.5 mg/ml protein concentration). Levorphanol (1×10^-5 M) was used as the displacer for non-specific binding. Both the displacer and the test compounds were added in 0.02 ml volumes. The assay was run in 0.05M tris HCl (pH 7.4) ±100 mM NaCl. Total assay volume was 2.03 ml.
Samples were incubated at 25° C. for 60 min., cooled on ice 5 min. and subsequently filtered over Whatman GF/C glass fiber filters with 2.4 ml washes of cold buffer. The filters were then solubilized in 1 ml of NCS at 50° C. for 1 hour. After solubilization, the pH was adjusted with 0.1 ml of glacial acetic acid, 10 ml of PCS was added and the samples were counted in a Nuclear Chicago Mark II liquid scintillation counter. This method was used for the following test compounds: Example 4, Example 5, Example 27, Example 28, Example 38, Example 39, and the prior art compound (4).
A modification of this method was used for the following test compounds: Example 16, Example 17, Example 21, Example 22, Example 24, Example 30, Example 31. In this modification, the total assay volume was adjusted to 1.0 ml. Samples were cooled on ice for 10 minutes and dried at 50° C. for 30 minutes, then 10 mls of PCS was added and the samples counted in a liquid scinitillation counter.
The IC50 values, the concentration of the test compounds which inhibited ^3 H-Naloxone specific binding to the opiate receptor by 50%, were obtained from log-probit plots of concentration-response curves. D. J. Finney. Probit Analysis. Cambridge University Press, London, 1947.

mice = assay: Writhing assay (phenylbenzoquinone); format: in vivo, mouse; design: key to Writhing Mouse Subc., effect of the screening dose / Writhing Mouse Oral, effect of the screening dose: Active: The test compound was rated active if writhing was inhibited (as described) in 5 of 10 mice; conditions: Table 1; for Writhing Mouse Oral, effect of the screening dose: screening dose 10 mg/kg p.o.; for Writhing Mouse Subc., effect of the screening dose: screening dose 10 mg/kg s.c.
Procedure: Male Charles River albino mice (CD-1/HAM/1LR) weighing between 20 and 30 grams were used. Thirty minutes after subcutaneous or intragastric administration of the test compound (0.1 ml/10 gram body weight), 0.025% (w/v) phenylbenzoquinone was injected intraperitoneally (0.1 ml/10 gram body weight). Five minutes later, each mouse was placed in a large glass beaker and the number of writhes that occurred in the subsequent ten minutes is counted. A writhe consisted of dorsoflexion of the back, extension of the hindlimbs, and strong contraction of the abdominal musculature. The test compound was considered to have produced analgesia in a mouse if the number of writhes elicited by phenylbenzoquinone was equal to or less than one-half the median number of writhes recorded for the saline-treated group that day. The results were expressed as the number of mice (out of a possible ten) in which the test compound produced analgesia. The test compound was rated active if writhing was inhibited (as described) in 5 of 10 mice.
The receptor binding and biological properties of the following compounds of this invention are illustrated in Tables 1 and 2 utilizing the previously described opiate binding, hot plate, tail flick, writhing assay, cholera test or hypertensive test. The standard screening dose for the hot plate test of Table 1 was 10 mg/kg i.v. and for the writhing assay was 10 mg/kg s.c. and p.o.

[1] = test system: spontaneous hypertensive rats (SHR); assay: Hypertensive test in spontaneous hypertensive rats (SHR); format: in vivo, rat; design: key to Antihypertensive Properties, Result: Active: Any compound that resulted in a decrease in arterial blood pressure of 20 mm Hg or greater was considered active; conditions: Table 3; 10 mg/kg intravenously, one unanesthetized male SHR
Procedure: A compound's ability to act as an antihypertensive agent was determined using spontaneous hypertensive rats (SHR). Male SHR were maintained in-house for 1 or more weeks before use and were between 11 and 16 weeks old. The test compound was administered intravenously and the initial mean arterial blood pressure was measured directly via an arterial catheter implanted immediately before administration of the compound. Blood pressure readings were made 5, 10 and 15 minutes after administration of the compound. […] Statistical comparisons were made using the unpaired student's test.
The following compounds of the invention were evaluated for their antihypertensive properties using the spontaneous hypertensive rat (SHR). […] The SHR test was essentially that described earlier. Each compound listed in Table 3, was administered intravenously to one unanesthetized, male, spontaneously hypertensive rat; the dosage was 10 mg/kg.

2,6-dimethyltyrosyl-N-(3-cyclohexylpropyl)-D-alaninamide, (2-methylpropyl)carbonate (ester) [Example 27]
pIC50 (opiate receptors): 8.57
Writhing Mouse Oral, effect of the screening dose (mice): Active
Writhing Mouse Subc., effect of the screening dose (mice): Active

2,6-dimethyltyrosyl-N-(4-phenylbutyl)-D-alaninamide, hydrochloride [Example 43]
Writhing Mouse Oral, effect of the screening dose (mice): Active
Writhing Mouse Subc., effect of the screening dose (mice): Active

2,6-dimethyltyrosyl-N-[3-(2,6-dimethylphenyl)propyl]-D-alaninamide hydrochloride [Example 38]
pIC50 (opiate receptors): 6.80
Writhing Mouse Oral, effect of the screening dose (mice): Active
Writhing Mouse Subc., effect of the screening dose (mice): Active

2,6-dimethyltyrosyl-N-[3-(2,6-dimethylphenyl)propyl]-D-alaninamide, hydrochloride [Example 39]
pIC50 (opiate receptors): 9.30
Writhing Mouse Oral, effect of the screening dose (mice): Active
Writhing Mouse Subc., effect of the screening dose (mice): Active

2-methyltyrosyl-N-(3-phenylpropyl)-D-alaninamide, hydrochloride [Example 16]
Antihypertensive Properties, Result [1]: Active

Cc1cc(O)cc(C)c1C[C@H](N)C(=O)N[C@H](C)C(=O)NCCCc1ccccc1.Cl [Example 4, 2,6-dimethyltyrosyl-N-(3-phenylpropyl)-D-alaninamide hydrochloride]
pIC50 (opiate receptors; hydrochloride): 7.30
ED50 (mice; Mus musculus, sc, subcutaneous, read-out: Writhing Mouse Subc. (ED50)): 0.58 mg/kg
Writhing Mouse Oral (ED50) (mice; oral, hydrochloride): 2.39 mg/kg
Antihypertensive Properties, Result [1]: Active
